Columns and labels:
CYCLIN K = target: T1, CYCLIN K (Homo sapiens, UniProt O75909); assay: CYCLIN K nuclear protein level: immunofluorescence/high content analysis in CAL-120 cells; format: cell-based; conditions: 24 h, nuclear CCNK staining intensity, median, read-out: CYCLIN K degradation IF, DC50- [mol/l] (median)
T1 construct: endogenous in cells; host or cells: CAL-120 human breast cancer cells (DSMZ ACC 459)
Method in brief: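 CAL-120 cells were incubated with compound in dose-response for 24 h at 37° C, then fixed, immunostained for CYCLIN K and Hoechst-counterstained. Confocal imaging gave nuclear intensity. DC50 is the concentration giving 50% reduction of nuclear CCNK staining relative to DMSO and reference controls.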

CDK2/CyclinE = target: T2, CDK2/CyclinE (Homo sapiens, UniProt P24941); assay: CDK2/CycE kinase assay (TR-FRET); format: biochemical; conditions: 2 mM ATP (high ATP); median; read-out: CDK2/CyclinE, 2 mM ATP (high ATP) IC50 - [mol/l] (median)
T2 construct: GST; purchased ProQinase GmbH (Freiburg, Germany); host or cells: insect cells (Sf9)
Method in brief: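 GST-tagged human CDK2/CycE (Sf9-expressed, ~10 ng/mL) was preincubated 15 min with compound, then run 25 min at 22 °C with 2 mM ATP and 0.75 μM biotinylated peptide, pH 8.0. Phospho-substrate was detected by TR-FRET (anti-RB pSer807/811, Eu-anti-mouse, streptavidin-XL665), 665/620 nm ratio, normalised to no-inhibitor and no-enzyme controls.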

T1 sequence (O75909 whole entry): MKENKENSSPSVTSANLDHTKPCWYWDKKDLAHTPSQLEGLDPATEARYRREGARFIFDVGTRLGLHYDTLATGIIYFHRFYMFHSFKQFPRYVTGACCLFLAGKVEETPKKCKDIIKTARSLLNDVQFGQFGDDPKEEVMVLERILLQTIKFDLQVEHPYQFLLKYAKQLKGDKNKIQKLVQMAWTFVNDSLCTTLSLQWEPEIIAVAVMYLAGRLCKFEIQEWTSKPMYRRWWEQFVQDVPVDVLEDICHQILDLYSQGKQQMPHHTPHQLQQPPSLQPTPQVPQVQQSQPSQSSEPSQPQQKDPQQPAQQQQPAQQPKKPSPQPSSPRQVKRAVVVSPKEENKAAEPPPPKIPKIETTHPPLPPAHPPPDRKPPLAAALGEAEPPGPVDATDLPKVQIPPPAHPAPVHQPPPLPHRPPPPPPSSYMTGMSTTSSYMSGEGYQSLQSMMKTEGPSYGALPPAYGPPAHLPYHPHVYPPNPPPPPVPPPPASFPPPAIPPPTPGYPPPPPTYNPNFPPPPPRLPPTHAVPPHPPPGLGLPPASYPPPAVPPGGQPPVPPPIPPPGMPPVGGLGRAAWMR
T1 sequence (Q9NYV4 whole entry partner): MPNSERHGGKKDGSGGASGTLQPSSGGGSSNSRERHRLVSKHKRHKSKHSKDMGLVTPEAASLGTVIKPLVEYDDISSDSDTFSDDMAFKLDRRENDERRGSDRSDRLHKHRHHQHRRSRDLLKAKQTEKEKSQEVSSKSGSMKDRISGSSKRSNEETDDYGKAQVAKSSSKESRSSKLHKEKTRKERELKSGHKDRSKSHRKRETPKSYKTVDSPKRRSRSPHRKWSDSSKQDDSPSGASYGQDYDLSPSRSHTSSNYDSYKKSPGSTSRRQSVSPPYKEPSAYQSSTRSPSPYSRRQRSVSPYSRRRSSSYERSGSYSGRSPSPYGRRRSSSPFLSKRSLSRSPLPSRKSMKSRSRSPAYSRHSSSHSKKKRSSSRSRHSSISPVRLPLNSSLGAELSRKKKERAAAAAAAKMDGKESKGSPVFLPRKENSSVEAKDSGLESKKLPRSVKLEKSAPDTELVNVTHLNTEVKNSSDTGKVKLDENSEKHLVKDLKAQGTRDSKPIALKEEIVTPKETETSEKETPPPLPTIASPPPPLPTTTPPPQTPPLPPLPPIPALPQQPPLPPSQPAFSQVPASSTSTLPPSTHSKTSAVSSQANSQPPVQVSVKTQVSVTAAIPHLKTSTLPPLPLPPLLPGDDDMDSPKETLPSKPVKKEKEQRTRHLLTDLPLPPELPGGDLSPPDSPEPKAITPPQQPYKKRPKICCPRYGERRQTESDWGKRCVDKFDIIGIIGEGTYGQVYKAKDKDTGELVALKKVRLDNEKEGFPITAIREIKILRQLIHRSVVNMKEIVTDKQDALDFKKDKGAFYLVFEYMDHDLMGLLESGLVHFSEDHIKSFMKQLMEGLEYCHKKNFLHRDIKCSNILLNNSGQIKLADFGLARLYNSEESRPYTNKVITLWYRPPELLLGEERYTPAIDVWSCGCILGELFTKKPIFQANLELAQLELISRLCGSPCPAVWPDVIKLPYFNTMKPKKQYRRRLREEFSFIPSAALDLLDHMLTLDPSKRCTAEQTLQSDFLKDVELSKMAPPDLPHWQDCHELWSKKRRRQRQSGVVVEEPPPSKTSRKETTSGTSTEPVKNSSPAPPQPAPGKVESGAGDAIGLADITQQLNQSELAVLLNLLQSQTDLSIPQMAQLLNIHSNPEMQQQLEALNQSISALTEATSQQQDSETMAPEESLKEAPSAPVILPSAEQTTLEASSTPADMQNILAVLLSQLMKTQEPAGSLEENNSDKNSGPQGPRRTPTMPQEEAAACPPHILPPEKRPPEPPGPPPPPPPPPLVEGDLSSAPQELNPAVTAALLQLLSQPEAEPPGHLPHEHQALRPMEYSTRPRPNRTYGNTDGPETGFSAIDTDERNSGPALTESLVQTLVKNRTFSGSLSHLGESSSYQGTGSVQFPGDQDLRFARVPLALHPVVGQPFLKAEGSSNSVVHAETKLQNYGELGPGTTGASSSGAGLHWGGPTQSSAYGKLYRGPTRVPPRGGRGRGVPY

Row | Structure (SMILES) | DC50 (CYCLIN K) | IC50 (CDK2/CyclinE)
1 | c1ccc2[nH]c(CNc3nn(CC4CCC4)c4nc(C5CC5)cnc34)nc2c1 [Example 75, N-[(1H-benzimidazol-2-yl)methyl]-1-(cyclobutylmethyl)-6-cyclopropyl-1H-pyrazolo[3,4-b]pyrazin-3-amine] | 124 nM | > 20 µM
2 | CC1CC(n2nc(NCc3nc4ccccc4[nH]3)c3ncc(C4CC4)nc32)CCO1 (racemic) [Example 44, (±)-cis/trans-N-[(1H-benzimidazol-2-yl)methyl]-6-cyclopropyl-1-(2-methyloxan-4-yl)-1H-pyrazolo[3,4-b]pyrazin-3-amine] | 13.5 nM | > 20 µM
3 | c1ccc2[nH]c(CNc3nn(C4CCNCC4)c4nc(C5CC5)cnc34)nc2c1 [Example 12, N-[(1H-benzimidazol-2-yl)methyl]-6-cyclopropyl-1-(piperidin-4-yl)-1H-pyrazolo[3,4-b]pyrazin-3-amine] | 2.16 nM | > 20 µM
4 | CC1CC(n2nc(NCc3nc4ccccc4[nH]3)c3ncc(C4CC4)nc32)CCN1C (racemic) [Example 41, (±)-cis/trans-N-[(1H-benzimidazol-2-yl)methyl]-6-cyclopropyl-1-(1,2-dimethylpiperidin-4-yl)-1H-pyrazolo[3,4-b]pyrazin-3-amine] | 2.3 nM | > 20 µM
5 | CC(C)(O)Cn1nc(NCc2nc3ccccc3[nH]2)c2ncc(C3CC3)nc21 [Example 69, 1-(3-{[(1H-benzimidazol-2-yl)methyl]amino}-6-cyclopropyl-1H-pyrazolo[3,4-b]pyrazin-1-yl)-2-methylpropan-2-ol] | 34.1 nM | > 20 µM
6 | COCCC(C)n1nc(NCc2nc3ccccc3[nH]2)c2ncc(C3CC3)nc21 (single isomer, unassigned; (+)) [Example 59, (+)-N-[(1H-benzimidazol-2-yl)methyl]-6-cyclopropyl-1-[4-methoxybutan-2-yl]-1H-pyrazolo[3,4-b]pyrazin-3-amine] | 38.6 nM | > 20 µM

The remaining molecules from weak to strong by DC50 (CYCLIN K), led by results:

Row | DC50 (CYCLIN K) | IC50 (CDK2/CyclinE) | Structure (SMILES)
7 | 118 nM | > 20 µM | Cc1cnc2c(NCc3nc4ccccc4[nH]3)nn(C3CCN(C)CC3)c2n1 [Example 77, N-[(1H-benzimidazol-2-yl)methyl]-6-methyl-1-(1-methylpiperidin-4-yl)-1H-pyrazolo[3,4-b]pyrazin-3-amine]
8 | 4.79 nM | > 20 µM | O[C@H]1C[C@H](n2nc(NCc3nc4ccccc4[nH]3)c3ncc(C4CC4)nc32)C1 [Example 43, trans-3-(3-{[(1H-benzimidazol-2-yl)methyl]amino}-6-cyclopropyl-1H-pyrazolo[3,4-b]pyrazin-1-yl)cyclobutan-1-ol]
9 | 3.31 nM | > 20 µM | c1ccc2[nH]c(CNc3nn(C4CC5(COC5)C4)c4nc(C5CC5)cnc34)nc2c1 [Example 54, N-[(1H-benzimidazol-2-yl)methyl]-6-cyclopropyl-1-(2-oxaspiro[3.3]heptan-6-yl)-1H-pyrazolo[3,4-b]pyrazin-3-amine]
10 | 0.877 nM | > 20 µM | Fc1ccc2[nH]c(CNc3nn(C4CCOCC4)c4nc(C5CC5)cnc34)nc2c1F [Example 32, 6-cyclopropyl-N-[(4,5-difluoro-1H-benzimidazol-2-yl)methyl]-1-(oxan-4-yl)-1H-pyrazolo[3,4-b]pyrazin-3-amine]
11 | 0.543 nM | > 20 µM | CN1CCC(n2nc(NCc3nc4cc(C(F)(F)F)ccc4[nH]3)c3ncc(C4CC4)nc32)CC1 [Example 25, 6-cyclopropyl-1-(1-methylpiperidin-4-yl)-N-{[5-(trifluoromethyl)-1H-benzimidazol-2-yl]methyl}-1H-pyrazolo[3,4-b]pyrazin-3-amine]

Reference: US20230192700A1, “PYRAZOLOPYRAZINES ACTING ON CANCERS VIA INHIBITION OF CDK12” (Bayer Aktiengesellschaft, priority 2020, published 2023)
